Experimental data reported in the NIST ThermoML archive (doi:10.1016/j.jct.2008.12.010).

Assays:
[1] = for speed of sound / mass density: 101.33 kPa, Liquid; for speed of sound: Linear variable-path acoustic interferometer; for mass density: Vibrating tube method; for surface tension liquid-gas: Drop volume
[2] = xn = mol fraction of the nth substance listed; conditions: for surface tension liquid-gas: 298.15 K, Drop volume; for speed of sound / mass density: 303.15 K, Liquid; for speed of sound: Linear variable-path acoustic interferometer; for mass density: Vibrating tube method

Cc1ccc(C)cc1 [1,4-dimethylbenzene]
[1]
Conditions | mass density [kg/m3] | speed of sound [m/s] | surface tension liquid-gas [mN/m]
288.15 K | 865.2 | 1350.7 | –
293.15 K | 860.9 | 1329.6 | –
298.15 K | 856.58 | 1308.4 | 27.43
303.15 K | 852.21 | 1287.4 | –
308.15 K | 847.83 | 1266.4 | –

CCCCCCCCCC [decane]
[1]
Conditions | mass density [kg/m3] | speed of sound [m/s] | surface tension liquid-gas [mN/m]
288.15 K | 733.62 | 1274.4 | –
293.15 K | 729.86 | 1254.8 | –
298.15 K | 726.09 | 1234.7 | 23.1
303.15 K | 722.3 | 1214.7 | –
308.15 K | 718.51 | 1194.9 | –

CCOC(=O)OCC [diethyl carbonate]
[1]
Conditions | mass density [kg/m3] | speed of sound [m/s] | surface tension liquid-gas [mN/m]
288.15 K | 980.4 | 1218 | –
293.15 K | 974.81 | 1197.7 | –
298.15 K | 969.19 | 1176.9 | 25.43
303.15 K | 963.6 | 1156.3 | –
308.15 K | 957.92 | 1135.8 | –

CCOC(=O)OCC [diethyl carbonate] + CCCCCCCCCC
[2]
Conditions | mass density [kg/m3] | speed of sound [m/s] | surface tension liquid-gas [mN/m]
x1 = 0.0495 | 729.09 | 1207.8 | –
x1 = 0.04972 | – | – | 22.98
x1 = 0.09861 | 736.12 | 1201.1 | –
x1 = 0.09958 | – | – | 22.89
x1 = 0.1979 | 751.5 | 1188.8 | –
x1 = 0.1989 | – | – | 22.86
x1 = 0.2966 | – | – | 22.84
x1 = 0.3012 | 769.28 | 1177.8 | –
x1 = 0.3959 | – | – | 22.89
x1 = 0.3995 | 788 | 1168.5 | –
x1 = 0.504 | 810.31 | 1160.2 | –
x1 = 0.5144 | – | – | 22.97
x1 = 0.5477 | 820.39 | 1157.2 | –
x1 = 0.5568 | – | – | 22.98
x1 = 0.5996 | – | – | 23.04
x1 = 0.6015 | 833.53 | 1153.9 | –
x1 = 0.699 | 859.54 | 1149.6 | –
x1 = 0.7 | – | – | 23.24
x1 = 0.7887 | – | – | 23.58
x1 = 0.799 | 889.41 | 1147.7 | –
x1 = 0.8986 | – | – | 24.27
x1 = 0.9002 | 924.32 | 1149.1 | –
x1 = 0.95 | 943.19 | 1151.4 | –
x1 = 0.9516 | – | – | 24.76
